Data on 4 compounds can be found in patent US20060106032A1, “Synthesis of N2 - (substituted arylmethyl) -3- (substituted phenyl) indazoles as novel anti-angiogenic agents” (YUNG SHIN PHARM. IND. CO., LTD., priority 2004, published 2006).

The test system of series [1] is VEGF-induced angiogenesis. The settings on record: previous finding; cited from earlier work.
The test system of series [2] is human umbilial vein endothelial cells (HUVECs). To be noted: previous finding; cited from earlier work.
A further series relates to angiogenesis. Description: Evaluation for anti-angiogenic activities (overall summary). The settings on record: summary statement. Here is the method:
3-(4-Methylphenyl)-1H-indazole (10) and N^2-(substituted benzyl)-3-(4-methylphenyl)indazoles (15, 17, 21, 25, 26) were evaluated for anti-angiogenic activities.
In this study, 3-(4-methylphenyl)-1H-indazole (10) and five of the above mentioned N^2-regioisomers, namely, compounds 15, 17, 21, 25 and 26 were selected for evaluating their effects on VEGF-induced cell proliferation, on VEGF-induced tube formation of HUVECs in vitro, and on neovascular formation in vivo.

In series [3] the test system is Human umbilical vein endothelial cells (HUVECs). Description: [3H]thymidine incorporation assay: VEGF-induced cell proliferation (DNA synthesis) of HUVECs. To be noted: VEGF 10 ng/mL; for activity on VEGF-induced cell proliferation of HUVECs compared with positive control YD-3: 1 μM. Type of series: cell-based. Here is the method: Human umbilical vein endothelial cells were incubated in the absence (basal and control) or presence of tested sample (YD-3, 10, 15, 17, 21, 25, 26) with 30 μM, and then vascular endothelial growth factor (VEGF) was added (except for basal) to induce DNA synthesis, which was detected using [^3H] thymidine incorporation assay.
Human umbilical vein endothelial cells were incubated in the absence (basal and control) or presence of tested sample (YD-3, 10, 15, 17, 21, 25, 26) with 10 μM, and then vascular endothelial growth factor (VEGF) was added (except for basal) to inducd DNA synthesis, which was detected using [^3H] thymidine incorporation assay. Means±S.E. (n=5) were presented.
Human umbilical vein endothelial cells were incubated in the absence (basal and control) or presence of tested sample (YD-3, 10, 15, 17, 21, 25, 26) with 1 μM, and then vascular endothelial growth factor (VEGF) was added (except for basal) to inducd DNA synthesis, which was detected using [^3H] thymidine incorporation assay. Means±S.E. (n=5) were presented.
(§1) Human umbilical vein endothelial cells (HUVECS) were isolated according to the protocols from Jaffe et al. and obtained from human umbilical cord veins with collagenase and cultured in 75 cm^2 plastic flasks in M199 containing 20% FBS, 15 μg/mL endothelial cell growth supplements (ECGs). Confirmation of their identity as endothelial cells was provided by detection of CD31 (PECAM-1), assessed by immunostaining. Experiments were conducted on HUVECs that had used in passage 2 to 5.
Confluent HUVECs were trypsinized, suspended in DMEM supplemented with 20% FBS, and seeded at 1.0×10^4 cells per well into 96-well plates. After 24 h, the cells were washed twice with PBS and starved with 2% FBS-M199 medium for 24 h. The cells were incubated with or without indicated reagents and growth factors (VEGF; 10 ng/mL) for 24 h and harvested. Before the harvest, cells were incubated with [^3H]thymidine (2 μCi/mL) for 4 h, harvested with Filter-Mate (Packard), and incorporated radioactivity was determined.
The effect of tested compounds on VEGF-induced cell proliferation of HUVECs was assessed with the [^3H]thymidine incorporation assay, and the results were illustrated in FIG. 5-FIG. 7.
On the technique in general: Dividing cells build labelled thymidine or BrdU into new DNA.

For series [4] the test system is unchanged. Put plainly: VEGF-induced tube formation of HUVECs on Matrigel. Type of series: cell-based. To be noted: FIG. 8; for blockage of VEGF-induced tube formation of HUVECs: Matrigel-coated chamberslide. Here is the method: FIG. 8 show photographs of the results of in vitro assay (inhibition of tube formation). Human umbilical vein endothelial cells were cultured onto chamberslide, which was precoated with Matrigel (10 mg/ml). Cells were treated without (basal and control) or with tested sample (YD-3, 10, 15, 17, 21, 25, 26) and then vascular endothelial growth factor (VEGF) was added to induce tube formation. All photographs were taken at 100×magnification.
as §1

Series [5] concerns VEGF-induced angiogenesis in Matrigel plug. Put plainly: In vivo Matrigel plug assay (neovascular formation, hemoglobin concentration). To be noted: nude mice, FIG. 9; for anti-angiogenic activity in Matrigel plug assay (hemoglobin concentration): 150 ng/ml VEGF plug, oral, seven-day administration. Here is the method: Nude mice were subcutaneously injected with a Matrigel plug containing 150 ng/ml vascular endothelial growth factor (VEGF). Vehicle or tested sample (YD-3, 10, 15, 17, 21, 25, 26) was orally administered into the mice. After a seven-day administration, the animals were euthanized and the plugs were cut of the mice for the measurement of angiogenic effect using the hemoglobin concentration as the parameter by means of a hemoglobin detection kit (Sigma). Means±S.E. (n=3) were presented. Nude mice (6 weeks of age) were given s.c. injections of 500 μL of Matrigel (Becton Dickinson, Bedford, Mass.) at 4° C. with or without YC-1 and growth factor (150 ng/mL VEGF). After injection, the Matrigel rapidly formed a plug. After 7 days, the skin of the mouse was easily pulled back to expose the Matrigel plug, which remained intact. After quantitative differences were noted and photographed, hemoglobin was measured, as an indication of blood vessel formation, using the Drabkin method (Drabkin reagent kit 525, Sigma, St. Louis, Mo.). The concentration of hemoglobin was calculated from a known amount of hemoglobin assayed in parallel. The in vivo Matrigel plug assay was used in this study to determine quantitative the anti-angiogenic effect of tested compounds.

In series [6] the test system is thrombin-induced Ca++ signal and thromboxane production. The settings on record: previous work; cited from earlier work.
The target of series [7] is T1, protease activated receptor (PAR)-4 (Homo sapiens, UniProt Q96RI0).
T1 sequence (Q96RI0 18-385): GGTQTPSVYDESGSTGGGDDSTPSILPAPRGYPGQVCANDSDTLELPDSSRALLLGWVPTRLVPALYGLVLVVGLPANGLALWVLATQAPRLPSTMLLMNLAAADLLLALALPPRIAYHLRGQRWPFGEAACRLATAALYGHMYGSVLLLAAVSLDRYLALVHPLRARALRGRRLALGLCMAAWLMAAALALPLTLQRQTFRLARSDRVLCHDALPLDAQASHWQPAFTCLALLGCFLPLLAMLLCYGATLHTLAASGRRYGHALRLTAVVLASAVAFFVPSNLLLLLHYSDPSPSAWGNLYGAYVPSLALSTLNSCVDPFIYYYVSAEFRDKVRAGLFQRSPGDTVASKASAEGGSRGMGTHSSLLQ
To be noted: previous works; cited from earlier work.

As for `O=C(O)c1ccc(-c2nn(Cc3ccccc3)c3ccccc23)cc1` [CHS-6, 4-(1-benzyl-1H-indazol-3-yl)benzoic acid], the “inhibition of VEGF-induced angiogenesis in Matrigel plug animal model” value in series [1] was “inhibit”. In addition, in series [2], the “inhibition of VEGF-induced cell proliferation in HUVECs” value is given as “inhibit”, the “inhibition of VEGF-induced migration in HUVECs” value is listed as “inhibit” and the “inhibition of VEGF-induced tube formation in HUVECs” value is reported as “inhibit”.
Take `Cc1ccc(Cn2nc3ccccc3c2-c2ccc(C)cc2)cc1` [Compound 21, 2-(4-Methylbenzyl)-3-(4-methylphenyl)-2H-indazole]: the melting point (as a rule, the temperature of the solid-liquid transition) is 107.5 to 109.3 °C. For the same compound, the “anti-angiogenic activity (overall)” value with angiogenesis is on record as “significant anti-angiogenic activity”. The “activity on VEGF-induced cell proliferation of HUVECs compared with positive control YD-3” value in [3] was “better activity than positive control YD-3”. Besides, in [3] (10 μM, FIG. 6), the “inhibitory effect on VEGF-induced cell proliferation of HUVECs ([3H]thymidine incorporation)” value (shortened to “inhibitory effect”) was “significant inhibitory effect”. Further, the “inhibitory effect” value in series [3] (30 μM, FIG. 5) is given as “significant inhibitory effect”. In [4], the “inhibitory activity on tube formation compared with other tested compounds and YD-3” value is “more potent than other tested compounds and YD-3”; the “blockage of VEGF-induced tube formation of HUVECs” value is reported as “significant blockage”. Further, in series [5], the “anti-angiogenic activity in Matrigel plug assay (hemoglobin concentration)” value is listed as “significant anti-angiogenic activities” and the “anti-angiogenic potency in Matrigel plug assay compared with positive control YD-3” value was “superior potency than the positive control YD-3”.
`COc1ccc(Cn2nc3ccccc3c2-c2ccc(C)cc2)cc1` [Compound 25, 2-(4-Methoxylbenzyl)-3-(4-methylphenyl)-2H-indazole]: the melting point was 113.6 to 115 °C. In addition, the “anti-angiogenic activity (overall)” value with angiogenesis is “significant anti-angiogenic activity”. Further, the “activity on VEGF-induced cell proliferation of HUVECs compared with positive control YD-3” value in [3] is on record as “better activity than positive control YD-3”. In addition, the “inhibitory effect” value in series [3] (10 μM, FIG. 6) is “significant inhibitory effect”. For the same compound, the “inhibitory effect” value in [3] (30 μM, FIG. 5) is listed as “significant inhibitory effect”. In series [4], the “inhibitory activity on tube formation compared with other tested compounds and YD-3” value is “more potent than other tested compounds and YD-3”; the “blockage of VEGF-induced tube formation of HUVECs” value was “significant blockage”. In series [5], the “anti-angiogenic activity in Matrigel plug assay (hemoglobin concentration)” value is listed as “significant anti-angiogenic activities” and the “anti-angiogenic potency in Matrigel plug assay compared with positive control YD-3” value is “superior potency than the positive control YD-3”.
With `CCOC(=O)c1ccc(-c2nn(Cc3ccccc3)c3ccccc23)cc1` [YD-3, Ethyl 4-(1-benzyl-1H-indazol-3-yl)benzoate], in [1], the “inhibition of VEGF-induced angiogenesis in Matrigel plug animal model” value is “inhibit”. The “inhibitory effect” value in series [3] (10 μM, FIG. 6) is reported as “significant inhibitory effect”. For the same compound, in [3] (30 μM, FIG. 5), the “inhibitory effect” value was “significant inhibitory effect”. Further, in series [2], the “inhibition of VEGF-induced cell proliferation in HUVECs” value is “inhibit”, the “inhibition of VEGF-induced migration in HUVECs” value is “inhibit” and the “inhibition of VEGF-induced tube formation in HUVECs” value was “inhibit”. For the same compound, in series [6], the “inhibition of low thrombin-induced Ca++ signal” value is reported as “effectively inhibits” and the “inhibition of low thrombin-induced thromboxane production” value was “effectively inhibits”. For the same compound, in series [7], the “inhibition of PAR-4-dependent activation” value is “selective and potent inhibitor”.
